We go through 6 compounds from patent US6900245B2, “Pharmaceutical composition comprising crystalline sibutramine methanesulfonate hemihydrate” (priority 2002, dated 2005).

Where a name gives a salt, the structure may show the parent alone. Read-outs that look alike come from different tables or passages of the source.

Data set [1] in a line: Solubility in water at pH 5.2 (saturation, HPLC). The data set is classed as physicochemical. To be noted: for solubility: pH 5.2, thermodynamic from solid, pH5.2, saturation, HPLC, based on water-free sibutramine. An excerpt: Sibutramine methanesulfonate hemihydrate of formula (I) and sibutramine hydrochloride monohydrate were each dissolved to the saturation point at pH 5.2, and then subjected to high performance liquid chromatography (HPLC) to determine the dissolved amount (based on water-free of sibutramine).

Data set [2] can be described thus: Stability on long term storage at 60° C. (residual rate). The data set is classed as physicochemical. The protocol:
The thermal stability of crystalline methanesulfonate hemihydrate of formula (I) during a long term storage was compared with that of the sibutramine hydrochloride monohydrate of formula (IV). The amounts of unchanged crystalline methanesulfonate hemihydrate of formula (I) and sibutramine hydrochloride monohydrate of formula (IV) at 60° C. after 1, 2, 3 and 6 months are shown in Table 3.

Data set [3] is described as follows: Non-hygroscopic test: water content by Karl Fischer after storage at 40° C., 75% or 10% relative humidity. To be noted: for water-content: 40° C. The data set is classed as physicochemical. The protocol: Crystalline sibutramine methanesulfonate hemihydrate of formula (I), sibutramine hydrochloride monohydrate (IV) and anhydrous sibutramine methanesulfonate were each exposed to a high temperature/humidity condition of 40° C. and 75% relative humidity for 1, 2, and 5 days, and the water content thereof was measured by employing Kaal-Fisher moisture analyzer.
A similar series of experiments were conducted at 40° C. and 10% relative humidity, in order to examine whether the respective compounds are stable under a relatively dry condition.

Data set [4] concerns overweight Zuker rats (fa/fa). The experiment in a line: Weight loss effect, 21 days, high-fat food. It is filed as in vivo, rat. The following applies: 3 mg/kg everyday for 21 days. The protocol:
(§1) 16 each of overweight Zuker rats (fa/fa) and thin Zuker rats (Fa/Fa) were divided into drug-administrating and control groups (8 rats per group), and the weight of each rat was measured prior to the test. A 3 mg/kg dose of crystalline sibutramine methanesulfonate hemihydrate was administrated to each rat of the drug-administrating groups, whiling the vehicle was administrated to those of the control groups, everyday for 21 days. During the period, rats were allowed free access to high-fat food, and the average weights of the drug-administrating and control groups were determined in order to calculate the weight gain and loss.

Data set [5] deals with thin Zuker rats (Fa/Fa). The data set can be described thus: Weight loss effect, 21 days, high-fat food. The data set is classed as in vivo, rat. The following applies: 3 mg/kg everyday for 21 days. On the procedure:
as §1

Data set [6] can be described thus: Exposure of anhydrous enantiomer salts to room temperature, 75% relative humidity. The data set is classed as physicochemical. An excerpt:
Further, anhydrous (+)- and (−)-sibutramine methanesulfonate were each placed for 1 day at room temperature under 75% relative humidity.

For data set [7] the following is noted: background statement on the prior art; cited from earlier work.
For data set [8] the following is noted: pH 5.2; Merck Index, 13th Ed, p1522; cited from earlier work.
The mark [9] stands for this setting: 10% relative humidity, storage 1 day.
The mark [10] stands for this setting: 10% relative humidity, storage 2 days.
The mark [11] stands for this setting: 10% relative humidity, storage 5 days.
Where [12] appears, read: 75% relative humidity, storage 1 day.
Where [13] appears, read: 75% relative humidity, storage 2 days.
Setting [14] is: 75% relative humidity, storage 5 days.

Regarding `CC(C)CC(N(C)C)C1(c2ccc(Cl)cc2)CCC1` (racemic) [sibutramine methanesulfonate hemihydrate], the “solubility in water compared with sibutramine hydrochloride monohydrate of formula (IV)” value in data set [1] (pH 5.2) is “markedly higher solubility in water”. For the same compound, the solubility in data set [1] was 2500 mg/mL. Also, in data set [2], the “Residual rate after 1 month” value was 1.001, the “Residual rate after 2 months” value is 0.999, the “Residual rate after 3 months” value is listed as 0.999 and the “Residual rate after 6 months” value was 1.000. The “Initial (unchanged amount)” value in data set [2] came to 1.000. Moreover, in data set [2] (up to 6 months), the “stability compared with sibutramine hydrochloride monohydrate” value is reported as “as stable as sibutramine hydrochloride monohydrate”. The compound also gave a water-content in data set [3] (setting [9]) of 2.27 % by weight. The compound also had a water-content in data set [3] (setting [10]) of 2.25 % by weight. In data set [3] (setting [11]), this compound had a water-content of 2.26 % by weight. This compound yielded a water-content in data set [3] (setting [12]) of 2.27 % by weight. This compound also gave a water-content in data set [3] (setting [13]) of 2.30 % by weight. Besides, the water-content in data set [3] (setting [14]) is 2.30 % by weight. Further, in data set [3] (dry condition (40° C., 10% RH)), the “release of the water of crystallization” value is on record as “does not release the water of crystallization”. In addition, in data set [3] (high humidity condition (40° C., 75% RH)), the hygroscopicity entry is reported as “non-hygroscopic”. The “weight loss effect as compared with the control group” value in data set [4] (Zuker rats, sentence covers overweight and thin rats) is recorded as “remarkable weight loss effect”. For the same compound, in data set [4] (overweight Zuker rats), the “The average weight after test (B)” value amounted to 455.6 g, the “Weight gain (B − A)” value turned out to be 123.4 g and the “Weight loss effect ((Gain in weight of the control group) − (Gain in weight of the drug-administrating group))” value came to 29.6 g. In addition, in data set [5], the “The average weight after test (B)” value was determined as 303.4 g, the “Weight gain (B − A)” value was 58.4 g and the “Weight loss effect ((Gain in weight of the control group) − (Gain in weight of the drug-administrating group))” value came out at 20.4 g.
For the compound `CC(C)CC(N(C)C)C1(c2ccc(Cl)cc2)CCC1.CS(=O)(=O)O` (single isomer, unassigned; (+)) [(+)-sibutramine methanesulfonate], the “state after 1 day” value in data set [6] was “transparent liquid”.
Take `CC(C)CC(N(C)C)C1(c2ccc(Cl)cc2)CCC1.CS(=O)(=O)O` (single isomer, unassigned; (-)) [(−)-sibutramine methanesulfonate]: the “state after 1 day” value in data set [6] is recorded as “transparent liquid”.
In the case of `CC(C)CC(N(C)C)C1(c2ccc(Cl)cc2)CCC1.Cl` (stereo not shown) [anhydrous sibutramine hydrochloride], in data set [7], the hygroscopicity result is reported as “highly hygroscopic”.
For `CC(C)CC(N(C)C)C1(c2ccc(Cl)cc2)CCC1.CS(=O)(=O)O` (stereo not shown) [anhydrous sibutramine methanesulfonate], the water-content in data set [3] (setting [9]) is listed as 0.60 % by weight; in data set [3] (setting [10]), 0.71 % by weight; in data set [3] (setting [11]), 0.70 % by weight; in data set [3] (setting [12]), 0.60 % by weight; in data set [3] (setting [13]), 2.20 % by weight; in data set [3] (setting [14]), 2.25 % by weight.
In data set [1], `CC(C)CC(N(C)C)C1(c2ccc(Cl)cc2)CCC1` (stereo not shown) [sibutramine hydrochloride monohydrate, reference compound] came in with a solubility of 2.8 mg/mL. Moreover, the “Residual rate after 1 month” value in data set [2] is recorded as 1.000. Further, the “Residual rate after 2 months” value in data set [2] is reported as 0.999. Also, the “Residual rate after 3 months” value in data set [2] turned out to be 0.999. Also, the “Residual rate after 6 months” value in data set [2] came to 0.992. In addition, the “Initial (unchanged amount)” value in data set [2] was found to be 1.000. For the same compound, the water-content amounted to 5.40 % by weight in data set [3] (setting [9]); 5.36 % by weight in data set [3] (setting [10]); 5.36 % by weight in data set [3] (setting [11]); 5.40 % by weight in data set [3] (setting [12]); 5.45 % by weight in data set [3] (setting [13]); 5.48 % by weight in data set [3] (setting [14]). The hygroscopicity result in data set [7] is recorded as “non-hygroscopic”. Further, in data set [8], the solubility in water is 2.9 mg/mL.
